Experimental findings from article PMC11227536, “Modulation of the Meisenheimer complex metabolism of nitro-benzothiazinones by targeted C-6 substitution” (Communications Chemistry, 2024) are described below.

≈ marks a conversion by molar mass, not a printed value.

For data set [1], the system named is Mycobacterium smegmatis (JMRC:STH:00056). The experiment in a line: MIC determination. The settings on record: Mycolicibacterium smegmatis; n = 1. Type of data set: cell-based. As for the experimental part: Supplementary Method 5: Biological Assays
Minimal inhibitory concentrations were determined against Mycobacterium vaccae (JMRC:STI:10670) and Mycobacterium smegmatis (JMRC:STH:00056). M. vaccae and M. smegmatis cultures were grown 48 h at 32 °C in a medium consisting of glycerol (1%), beef extract (0.5%), peptone from casein (0.5%) and sodium chloride (0.3%). Serial dilutions of the DMSO test item solutions (1 mg∙mL -1) were prepared at 100 µL scale in 96 well plates in Mueller Hinton broth starting at 200 µg∙mL -1 (highest) to cover a final concentration range of 100 to 0.05 µg∙mL -1. Each plate was equipped with a series of DMSO and ciprofloxacin dilutions as quality controls. 96 well plates were inoculated with 100 µL diluted culture (Mueller Hinton bullion) at a final concentration of 5∙10 5 and incubated at 37 °C for 42 h. Growth/no growth was visually inspected. […]

The subject of a further data set is human liver microsomes. The experiment in a line: Microsomal stability assay. Type of data set: in vitro ADME. The settings on record: for Eh (hepatic extraction ratio): fu = 1, Q = 20.0 mL∙min-1∙kg-1, human; for Clint,micro: human liver microsomes. As for the experimental part:
(§1) 4. Microsomal stability assay
(§2) A microsomal stability assay was performed according to an internal standard procedure. Positive control compound diclofenac and three test items were freshly prepared as sub-dilutions in phosphate buffer (100 mM, pH 7.4) at concentrations of 200 µM and 20 µM, respectively. All incubations were conducted in triplicate in glass screw neck vials (1.5 mL, flat bottom, Macherey-Nagel, Düren, Germany) on a Thermomixer C (Eppendorf, Germany) at 37 °C and 1500 rpm. The incubation mixtures contained 270 µL human liver microsomes (HLM, 1.1 mg∙mL -1, UltraPool HLM 150, Corning B.V.
(§3) Life Science, Amsterdam, the Netherlands), 270 µL NADP regeneration mix (1 mM NADP, 5 mM glucose-6-phosphate, 5 units∙mL -1 glucose-6-phosphate dehydrogenase and 5 mM MgCl 2) and 30 µL phosphate buffer to reach a total volume of 570 µL. Negative controls were performed with heat inactivated (80 °C, 30 min) HLM solution. Reactions were initiated by addition of diclofenac or the test item solution (30 µL). Aliquots of 100 µL were taken at 1, 15, 30, 60, and 90 minutes and immediately processed with 100 µL acetonitrile at 4°C to terminate the reactions, and shaken for 2 minutes at 4°C with 1600 rpm. The mixed samples were further centrifuged for 2 minutes at 4 °C with 16.1 krcf. The supernatants were withdrawn and subjected to high resolution mass spectrometry analysis without […]
(§4) Analysis of microsomal stability assay
(§5) Samples were analyzed using a Vanquish Horizon UHPLC system (Thermo Fisher Scientific, Bremen, Germany) coupled to a Thermo Scientific QExactive HF-X Orbitrap mass spectrometer (Thermo Fisher Scientific, Bremen, Germany) using a UPLC column (ACQUITY HSS T3, Waters, 1.8 µm particle size, 2.1 × 50 mm dimensions) equipped with a pre-column (ACQUITY HSS T3 VanGuard Pre-column, Waters, 1.8 µm particle size, 2.1 × 5 mm dimensions). The column temperature was maintained at 25°C, and the samples were kept at 4°C. The UHPLC system was operated at a flow rate of 0.6 mL/min and an injection volume of 5 µL. Mobile phases consisted of 0.1% (v/v) formic acid in water (Eluent A) and 0.1% (v/v) formic acid in acetonitrile (Eluent B). Chromatographic separation was obtained as follows:
(§6) 0 to 4 min: a linear from 5 to 98% of Eluent B; 4 to 6.5 min: isocratic at 98% B; 6.5 to 7 min: linear from 98 to 5% B; 7 to 9 min: isocratic at 5% B. The high-resolution mass spectra were acquired with electrospray ionization at both positive and negative modes. A scan range of m/z 120 to 1800 was chosen, and the maximum injection time was set to 200 ms. Ion source parameters were: spray voltage 3.5 kV, capillary temperature 320°C, RF level 40, sheath gas pressure 50 (N 2 > 95%), auxiliary gas 10 (N2 > 95%), auxiliary gas heater temperature 300°C. The value for the automatic gain control (AGC) target was set to 10 6, resolution was 60000, and chromatographic peak width (FWHM) was 15 s.
(§7) Calculation of the results from microsomal stability assay
(§8) Elimination rate constant (k) = (- gradient)
(§9) Half-life (t ) (min) = ௟௡
(§10) V (µL∙mg -1) = ௩௢௟௨௠௘ ௢௙ ௜௡௖௨௕௔௧௜௢௡ (µ௅) […]
(§11) Intrinsic clearance in liver microsomes (Cl ) (µL∙min∙mL -1protein) = ௏ × ௟௡ଶ […]
(§12) Intrinsic clearance (Cl ) (mL∙min -1∙kg -1) = ௟௡ × ௏ × ௠௚ ௠௜௖௥௢௦௢௠௔௟ ௣௥௢௧௘௜௡ × ௚ ௟௜௩௘௥ int ௧భ/మ ଵ଴଴଴ ௚ ௟௜௩௘௥ ௪௘௜௚௛௧ ௞௚ ௕௢ௗ௬ ௪௘௜௚௛௧
(§13) (52.5 mg protein∙ g -1 liver used for human; 22.0 g∙ kg -1 liver to body weight used for human) Hepatic extraction ratio (E ) = ୤౫ × େ୪౟౤౪
(§14) (fu: fraction of drug unbound in plasma, f u = 1 used for the calculation; Q: hepatic blood flow, 20.0 mL∙min-1∙kg -1 for human).

Data set [2] can be described thus: Microsomal stability assay. Format: in vitro ADME, human. Particulars: pH 7.4; for CLint scaled at 1 µM: liver microsomes, scaled: 52.5 mg protein/g liver, 22.0 g liver/kg, human; for half-life at 1 µM: human liver microsomes, 37 °C. As for the experimental part: as §1, §2, §3, §4, §5, §6, §7, §8, §9, §10, §11, §12, §13, §14

Molecule `C[C@H]1COC2(CCN(c3nc(=O)c4cc(C#N)cc([N+](=O)[O-])c4s3)CC2)O1` [Compound 9] yielded an MIC in data set [1] of 0.13 µM (≈ 0.0505 µg/mL). Besides, in the data set with human liver microsomes, the “Eh (hepatic extraction ratio)” value is 43.5% and the “Clint,micro” value stood at 13.3 µl.min-1-mg-1 protein. In data set [2], this molecule yielded a CLint scaled at 1 µM of 15.4 mL/min/kg and a half-life at 1 µM of 1.75 h.

As for `C[C@H]1COC2(CCN(c3nc(=O)c4cc(Br)cc([N+](=O)[O-])c4s3)CC2)O1` [Compound 11], the MIC in data set [1] turned out to be 0.057 µM (≈ 0.0252 µg/mL). Also, in the data set with human liver microsomes, the “Eh (hepatic extraction ratio)” value is reported as 47.9% and the “Clint,micro” value stood at 16 µl.min-1-mg-1 protein. In data set [2], the CLint scaled at 1 µM came out at 18.4 mL/min/kg and the half-life at 1 µM turned out to be 1.46 h.

`CC(C)OC(=O)c1cc([N+](=O)[O-])c2sc(N3CCC4(CC3)OC[C@H](C)O4)nc(=O)c2c1` [Compound 6c] yielded an MIC in data set [1] of 6.94 µM (≈ 3.12 µg/mL). Moreover, in the data set on human liver microsomes, the “Eh (hepatic extraction ratio)” value turned out to be 75.3% and the “Clint,micro” value turned out to be 52.9 µl.min-1-mg-1 protein. In addition, in data set [2], the CLint scaled at 1 µM amounted to 61.1 mL/min/kg and the half-life at 1 µM was found to be 0.441 h.

Regarding `CON(C)C(=O)c1cc([N+](=O)[O-])c2sc(N3CCC4(CC3)OC[C@H](C)O4)nc(=O)c2c1` [Compound 7f], in data set [1], the lowest concentration to inhibit growth (MIC) was 111 µM (≈ 50 µg/mL). In the data set with human liver microsomes, the “Eh (hepatic extraction ratio)” value turned out to be 35.5% and the “Clint,micro” value was found to be 9.5 µl.min-1-mg-1 protein. Besides, in data set [2], the CLint scaled at 1 µM is 11 mL/min/kg and the half-life at 1 µM is 2.46 h.

For the molecule `COC(=O)c1cc([N+](=O)[O-])c2sc(N3CCC4(CC3)OC[C@H](C)O4)nc(=O)c2c1` [Compound 6a], the MIC in data set [1] is 3.7 µM (≈ 1.56 µg/mL). Also, in the data set with human liver microsomes, the “Eh (hepatic extraction ratio)” value is on record as 94.8% and the “Clint,micro” value stood at 314.7 µl.min-1-mg-1 protein. In data set [2], this molecule came in with a CLint scaled at 1 µM of 363 mL/min/kg and a half-life at 1 µM of 0.0742 h.

`C[C@H]1COC2(CCN(c3nc(=O)c4cc(C(=O)O)cc([N+](=O)[O-])c4s3)CC2)O1` [Compound 8] came in with an MIC in data set [1] of 15.3 µM (≈ 6.23 µg/mL).

Molecule `C[C@H]1COC2(CCN(c3nc(=O)c4cc(I)cc([N+](=O)[O-])c4s3)CC2)O1` [Compound 10] displayed an MIC in data set [1] of 0.1 µM (≈ 0.0489 µg/mL). Further, in the data set on human liver microsomes, the “Eh (hepatic extraction ratio)” value is listed as 48.8% and the “Clint,micro” value stood at 16.1 µl.min-1-mg-1 protein. For the same molecule, in data set [2], the CLint scaled at 1 µM was determined as 19.1 mL/min/kg and the half-life at 1 µM amounted to 1.41 h.

Turning to `C[C@H]1COC2(CCN(c3nc(=O)c4cc(C(=O)N(C)C)cc([N+](=O)[O-])c4s3)CC2)O1` [Compound 7c], the MIC in data set [1] came out at 230 µM (≈ 100 µg/mL). Further, in the data set on human liver microsomes, the “Eh (hepatic extraction ratio)” value came to 13% and the “Clint,micro” value was 2.6 µl.min-1-mg-1 protein. Further, in data set [2], the CLint scaled at 1 µM was 3 mL/min/kg and the half-life at 1 µM is 8.89 h.

In turn, `C[C@H]1COC2(CCN(c3nc(=O)c4cccc([N+](=O)[O-])c4s3)CC2)O1` [Compound 23] yielded an MIC in data set [1] of 8.59 µM (≈ 3.12 µg/mL). Further, in the data set on human liver microsomes, the “Eh (hepatic extraction ratio)” value is 22.5% and the “Clint,micro” value is given as 5.1 µl.min-1-mg-1 protein. In addition, in data set [2], the CLint scaled at 1 µM came to 5.8 mL/min/kg and the half-life at 1 µM amounted to 4.62 h.
